Source: patent US20240270695A1, “COMPOUNDS, COMPOSITIONS AND METHODS OF TREATING DISORDERS” (Chengdu Anticancer Bioscience LTD, priority 2021, published 2024)

Experiments:
[1] = tested on: RPE-Neo or RPE-MYC or RPE-MYC expressing an EGFP-Histone 2B fusion protein; assay: Phenotypic screening assay (arrest in mitosis, change in DNA content, cell death; GE IN-Cell Analyzer 2000); type: cell-based; details: Homo sapiens, compounds 20 nM to 20 μM, 24, 48 or 72 hours
[2] = tested on: RPE-Neo or RPE-MYC or RPE-MYC expressing an EGFP-Histone 2B fusion protein; assay: MTT assays of cellular proliferation; type: cell-based; details: Homo sapiens, min. effective conc., read-out: Proliferative arrest (<50%)
[3] = read-out: Min. Effective conc. for Polyploidy (≥10%)
[4] = min. effective conc., read-out: Cell Death (>30%)
[5] = min. effective conc., read-out: Mitotic Arrest (≥10%)

Row | Structure (SMILES) | minimal effective concentration [1, 3] | minimal effective concentration [1, 4] | minimal effective concentration [1, 5] | minimal effective concentration [2]
1 | CNC(=O)C1=C(O)c2ccc(OCc3ccsc3)cc2N(Cc2ccc(C)c(F)c2)C(=O)C1 [Example 134, 1-(3-fluoro-4-methylbenzyl)-5-hydroxy-N-methyl-2-oxo-8-(thiophen-3-ylmethoxy)-2,3-dihydro-1H-benzo[b]azepine-4-carboxamide] | 1 to 10 µM | 1 to 10 µM | 1 to 10 µM | 1 to 10 µM
2 | CNC(=O)C1=C(O)c2ccccc2N(Cc2cc(C)cc(C)c2)C(=O)C1 [Example 97, 1-(3,5-dimethylbenzyl)-5-hydroxy-N-methyl-2-oxo-2,3-dihydro-1H-benzo[b]azepine-4-carboxamide] | 1 to 10 µM | 1 to 10 µM | 1 to 10 µM | 1 to 10 µM
3 | CNC(=O)C1=C(O)c2ccccc2N(Cc2ccccc2)C(=O)C1 [Example 72, 1-benzyl-5-hydroxy-N-methyl-2-oxo-2,3-dihydro-1H-benzo[b]azepine-4-carboxamide] | 30 to 1000 µM | – | 30 to 1000 µM | 30 to 1000 µM
4 | CNC(=O)C1=C(O)c2ccccc2N(Cc2ccc(F)c(Cl)c2)C(=O)C1 [Example 116, 1-(3-chloro-4-fluorobenzyl)-5-hydroxy-N-methyl-2-oxo-2,3-dihydro-1H-benzo[b]azepine-4-carboxamide] | 30 to 1000 µM | 30 to 1000 µM | 30 to 1000 µM | 30 to 1000 µM
5 | CNC(=O)C1=C(O)c2ccccc2N(Cc2ccccc2OC)C(=O)C1 [Example 93, 5-hydroxy-1-(2-methoxybenzyl)-N-methyl-2-oxo-2,3-dihydro-1H-benzo[b]azepine-4-carboxamide] | 10 to 30 µM | 10 to 30 µM | 10 to 30 µM | 10 to 30 µM
6 | CNC(=O)C1=C(O)c2ccccc2N(Cc2ccc(C)c(Cl)c2)C(=O)C1 [Example 119, 1-(3-chloro-4-methylbenzyl)-5-hydroxy-N-methyl-2-oxo-2,3-dihydro-1H-benzo[b]azepine-4-carboxamide] | 10 to 30 µM | 10 to 30 µM | 10 to 30 µM | 10 to 30 µM
7 | CNC(=O)C1=C(O)c2ccccc2N(Cc2ccc(F)c(OC)c2)C(=O)C1 [Example 112, 1-(4-fluoro-3-methoxybenzyl)-5-hydroxy-N-methyl-2-oxo-2,3-dihydro-1H-benzo[b]azepine-4-carboxamide] | 1 to 10 µM | 1 to 10 µM | 1 to 10 µM | 1 to 10 µM
8 | CNC(=O)C1=C(O)c2ccccc2N(Cc2ccc(F)c(F)c2)C(=O)C1 [Example 102, 1-(3,4-difluorobenzyl)-5-hydroxy-N-methyl-2-oxo-2,3-dihydro-1H-benzo[b]azepine-4-carboxamide] | 30 to 1000 µM | 30 to 1000 µM | 30 to 1000 µM | 30 to 1000 µM
9 | CNC(=O)C1CC(=O)N(Cc2ccc(OC(F)F)cc2)c2ccccc2C1=O (stereo not shown) [Example 94, 1-(4-(difluoromethoxy)benzyl)-5-hydroxy-N-methyl-2-oxo-2,3-dihydro-1H-benzo[b]azepine-4-carboxamide] | 30 to 1000 µM | 30 to 1000 µM | 30 to 1000 µM | 30 to 1000 µM
10 | CNC(=O)C1=C(O)c2ccccc2N(Cc2cccc(C)c2C)C(=O)C1 [Example 98, 1-(2,3-dimethylbenzyl)-5-hydroxy-N-methyl-2-oxo-2,3-dihydro-1H-benzo[b]azepine-4-carboxamide] | 10 to 30 µM | 30 to 1000 µM | 10 to 30 µM | 30 to 1000 µM
11 | CNC(=O)C1=C(O)c2ccccc2N(Cc2ccc(Br)c(F)c2)C(=O)C1 [Example 125, 1-(4-bromo-3-fluorobenzyl)-5-hydroxy-N-methyl-2-oxo-2,3-dihydro-1H-benzo[b]azepine-4-carboxamide] | 1 to 10 µM | 1 to 10 µM | 1 to 10 µM | 1 to 10 µM
12 | CNC(=O)C1=C(O)c2ccc(Br)cc2N(Cc2ccc(F)c(C)c2)C(=O)C1 [Example 132, 8-bromo-1-(4-fluoro-3-methylbenzyl)-5-hydroxy-N-methyl-2-oxo-2,3-dihydro-1H-benzo[b]azepine-4-carboxamide] | 1 to 10 µM | 1 to 10 µM | 1 to 10 µM | 1 to 10 µM
13 | CNC(=O)C1=C(O)c2ccccc2N(Cc2ccc(OC)c(C(F)(F)F)c2)C(=O)C1 [Example 123, 5-hydroxy-1-(4-methoxy-3-(trifluoromethyl)benzyl)-N-methyl-2-oxo-2,3-dihydro-1H-benzo[b]azepine-4-carboxamide] | 30 to 1000 µM | 30 to 1000 µM | 30 to 1000 µM | 30 to 1000 µM
14 | CNC(=O)C1=C(O)c2ccccc2N(Cc2ccc(F)c(C#N)c2)C(=O)C1 [Example 117, 1-(3-cyano-4-fluorobenzyl)-5-hydroxy-N-methyl-2-oxo-2,3-dihydro-1H-benzo[b]azepine-4-carboxamide] | 30 to 1000 µM | 30 to 1000 µM | 30 to 1000 µM | 30 to 1000 µM
